Data as given in patent US10072003B2, “Tetrahydronaphthyridine derivatives as mGluR2-negative allosteric modulators, compositions, and their use” (Merck Sharp & Dohme Corp., priority 2014, dated 2018).

What follows are compounds tested against recombinant human mGluR2 (Homo sapiens (Human), UniProt Q14416) (assay: FLIPR Ca2+ mobilization antagonist assay in CHO dhfr- cells expressing human mGluR2 and Gα16). Settings: antagonist response after addition of 2,500 nM glutamate, Fluo-4 AM, FLIPR384.
Type: cell-based
How it was run: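 CHO dhfr- cells stably co-expressing human mGluR2 and Gα16, Fluo-4 AM loaded, preincubated with compound, then challenged with 2,500 nM glutamate; Ca2+ response read by FLIPR. Maximum calcium response vs concentration fitted to four-parameter logistic for IC50.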

Sequence of recombinant human mGluR2 (Q14416 19-872): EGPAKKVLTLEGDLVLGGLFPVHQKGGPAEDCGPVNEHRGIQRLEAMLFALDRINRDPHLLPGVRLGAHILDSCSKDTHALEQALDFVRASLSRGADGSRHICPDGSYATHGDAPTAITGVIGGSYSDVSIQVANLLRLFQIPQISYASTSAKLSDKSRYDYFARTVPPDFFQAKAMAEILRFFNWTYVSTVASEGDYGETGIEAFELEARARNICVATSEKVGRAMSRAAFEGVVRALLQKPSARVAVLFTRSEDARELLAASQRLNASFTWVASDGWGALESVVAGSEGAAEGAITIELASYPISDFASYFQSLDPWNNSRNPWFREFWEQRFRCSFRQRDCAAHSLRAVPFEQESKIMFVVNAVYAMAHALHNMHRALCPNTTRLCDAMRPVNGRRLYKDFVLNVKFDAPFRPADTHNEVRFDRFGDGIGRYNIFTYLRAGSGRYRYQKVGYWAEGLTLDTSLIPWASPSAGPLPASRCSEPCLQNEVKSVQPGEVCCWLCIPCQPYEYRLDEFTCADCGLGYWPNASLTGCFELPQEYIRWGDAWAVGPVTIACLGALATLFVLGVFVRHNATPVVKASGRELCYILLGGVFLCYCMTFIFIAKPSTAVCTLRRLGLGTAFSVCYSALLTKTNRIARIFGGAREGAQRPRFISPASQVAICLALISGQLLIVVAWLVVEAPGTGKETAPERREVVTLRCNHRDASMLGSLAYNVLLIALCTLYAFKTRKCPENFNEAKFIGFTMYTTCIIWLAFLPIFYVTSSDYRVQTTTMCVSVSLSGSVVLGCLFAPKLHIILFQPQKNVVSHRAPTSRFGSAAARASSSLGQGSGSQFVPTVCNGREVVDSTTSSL

| Structure (SMILES) | IC50 |
| --- | --- |
| COc1ccc(-c2cc(C(N)=O)nc3c2CCN(Cc2ccnc(OC)c2)C3)c(F)c1 [Example 13-2, 4-(2-fluoro-4-methoxyphenyl)-7-[(2-methoxypyridin-4-yl)methyl]-5,6,7,8-tetrahydro-1,7-naphthyridine-2-carboxamide] | 0.0066 µM |
| NC(=O)c1cc(N2CCC(F)(F)CC2)c2c(n1)CN(Cc1cc(C(F)(F)F)ncn1)CC2 [Example 12-4, 4-(4,4-difluoropiperidin-1-yl)-7-{[6-(trifluoromethyl)pyrimidin-4-yl]methyl}-5,6,7,8-tetrahydro-1,7-naphthyridine-2-carboxamide] | 0.0359 µM |
| NC(=O)c1ccc(CN2CCc3c(-c4ccc(F)cc4)cc(C(N)=O)nc3C2)cc1 [Example 2-3, 7-(4-carbamoylbenzyl)-4-(4-fluorophenyl)-5,6,7,8-tetrahydro-1,7-naphthyridine-2-carboxamide] | 0.117 µM |
| CC1c2nc(C(N)=O)cc(N3CCCCC3)c2CCN1Cc1ccnn1C(C)C (single isomer, unassigned) [Example 1-19, (S) or (R)-8-methyl-7-{[1-(1-methylethyl)-1H-pyrazol-5-yl]methyl}-4-piperidin-1-yl-5,6,7,8-tetrahydro-1,7-naphthyridine-2-carboxamide] | 0.0132 µM |
| Cc1nc(CN2CCc3c(-c4ccc(Cl)cc4F)cc(C(N)=O)nc3C2)no1 [Example 9-2, 4-(4-chloro-2-fluorophenyl)-7-[(5-methyl-1,2,4-oxadiazol-3-yl)methyl]-5,6,7,8-tetrahydro-1,7-naphthyridine-2-carboxamide] | 0.0097 µM |
| CN1CCN(c2cc(C(N)=O)nc3c2CCN(Cc2ccnc(C(F)(F)F)c2)C3)CC1C(F)(F)F (single isomer, unassigned) [Example 5-9, (S) or (R)-4-(4-methyl-3-(trifluoromethyl)piperazin-1-yl-7-((2-(trifluoromethyl)pyridin-4-yl)methyl)-5,6,7,8-tetrahydro-1,7-naphthyridine-2-carboxamide] | 0.0927 µM |
| NC(=O)c1cc(-c2ccc(F)cc2F)c2c(n1)CN(C(CO)c1ccccc1)CC2 (racemic) [Example 8-2B, (S) and (R)-4-(2,4-difluorophenyl)-7-(2-hydroxy-1-phenylethyl)-5,6,7,8-tetrahydro-1,7-naphthyridine-2-carboxamide] | 0.0115 µM |
| Cc1csc(-c2cc(C(N)=O)nc3c2CCN(Cc2ccnc(C(F)(F)F)c2)C3)n1 [Example 6-2, 4-(4-methyl-1,3-thiazol-2-yl)-7-{[2-(trifluoromethyl)pyridin-4-yl]methyl}-5,6,7,8-tetrahydro-1,7-naphthyridine-2-carboxamide] | 1.15 µM |
| CC(c1cnnn1C)N1CCc2c(-c3ccc(F)cc3F)cc(C(N)=O)nc2C1 (single isomer, unassigned) [Example 7-1, (S) or (R)-4-(2,4-difluorophenyl)-7-(1-(1-methyl-1H-1,2,3-triazol-5-yl)ethyl)-5,6,7,8-tetrahydro-1,7-naphthyridine-2-carboxamide] | 0.0374 µM |
| NC(=O)c1cc(-n2cc(C(F)(F)F)cn2)c2c(n1)CN(Cc1ccnc(C(F)(F)F)c1)CC2 [Example 5-10, 4-[4-(trifluoromethyl)-1H-pyrazol-1-yl]-7-{[2-(trifluoromethyl)pyridin-4-yl]methyl}-5,6,7,8-tetrahydro-1,7-naphthyridine-2-carboxamide] | 0.032 µM |
| CC1CCCN(c2cc(C(N)=O)nc3c2CCN(Cc2ccnc(C(F)(F)F)c2)C3)C1 (single isomer, unassigned) [Example 5-5A, (S) or (R)-4-(3-methylpiperidin-1-yl)-7-((2-(trifluoromethyl)pyridin-4-yl)methyl)-5,6,7,8-tetrahydro-1,7-naphthyridine-2-carboxamide] | 0.0184 µM |
| NC(=O)c1cc(-c2c(F)cc(F)cc2F)c2c(n1)CN(Cc1ccnc(C(F)(F)F)n1)CC2 [Example 11-6, 7-{[2-(trifluoromethyl)pyrimidin-4-yl]methyl}-4-(2,4,6-trifluorophenyl)-5,6,7,8-tetrahydro-1,7-naphthyridine-2-carboxamide] | 0.0132 µM |
